Source: ChEMBL document CHEMBL4219044, “Challenges in the design of insulin and relaxin/insulin-like peptide mimetics” (Bioorg Med Chem, 2018)
pEC50, pKd: −log10 of the molar value. Residues, ends and D or L forms follow the SMILES beside them.

Experiments:
Insulin receptor [1] = target: T1, Insulin receptor (Homo sapiens, UniProt P06213); test: Activation of recombinant human insulin receptor using biotin-KSRGDYMTMQIG as substrate after 1 hr by spectrophotometry relative to insulin
Insulin receptor [2] = target: Insulin receptor (Mus musculus, UniProt P15208); test: Agonist activity at B6D2F1 mouse insulin receptor assessed as increase in glucose incorporation into lipid phase after 2 hrs in presence of D-[3-3H]glucose by TopCount microplate scintillation counting method
Insulin receptor [3] = target: T1, Insulin receptor; test: Displacement of [TyrA14-125I]-human insulin from human insulin receptor isoform A expressed in baby hamster kidney cells after 2 days by gamma counting method; assay type: cell-based

T1 sequence (P06213 28-758 limits assumed): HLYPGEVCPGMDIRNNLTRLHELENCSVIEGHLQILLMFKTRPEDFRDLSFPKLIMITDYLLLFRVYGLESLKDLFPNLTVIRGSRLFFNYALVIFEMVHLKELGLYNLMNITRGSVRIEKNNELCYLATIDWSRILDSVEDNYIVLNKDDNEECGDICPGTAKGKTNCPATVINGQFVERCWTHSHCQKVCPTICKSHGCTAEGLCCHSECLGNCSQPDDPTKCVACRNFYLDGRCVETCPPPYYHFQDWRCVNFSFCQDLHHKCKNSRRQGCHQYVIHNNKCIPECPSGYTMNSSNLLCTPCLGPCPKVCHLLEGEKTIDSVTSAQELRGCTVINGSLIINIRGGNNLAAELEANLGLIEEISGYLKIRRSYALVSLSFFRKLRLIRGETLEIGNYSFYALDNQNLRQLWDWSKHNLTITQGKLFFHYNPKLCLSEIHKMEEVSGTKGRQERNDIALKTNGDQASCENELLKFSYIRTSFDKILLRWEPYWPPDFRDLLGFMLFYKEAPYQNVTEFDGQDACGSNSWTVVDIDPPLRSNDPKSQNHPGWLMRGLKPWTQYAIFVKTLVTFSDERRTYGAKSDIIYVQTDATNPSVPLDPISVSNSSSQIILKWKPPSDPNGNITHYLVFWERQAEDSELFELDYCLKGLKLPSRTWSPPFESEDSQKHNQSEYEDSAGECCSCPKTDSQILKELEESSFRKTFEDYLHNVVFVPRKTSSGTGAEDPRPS
T1 sequence (P06213 763-1382 limits assumed): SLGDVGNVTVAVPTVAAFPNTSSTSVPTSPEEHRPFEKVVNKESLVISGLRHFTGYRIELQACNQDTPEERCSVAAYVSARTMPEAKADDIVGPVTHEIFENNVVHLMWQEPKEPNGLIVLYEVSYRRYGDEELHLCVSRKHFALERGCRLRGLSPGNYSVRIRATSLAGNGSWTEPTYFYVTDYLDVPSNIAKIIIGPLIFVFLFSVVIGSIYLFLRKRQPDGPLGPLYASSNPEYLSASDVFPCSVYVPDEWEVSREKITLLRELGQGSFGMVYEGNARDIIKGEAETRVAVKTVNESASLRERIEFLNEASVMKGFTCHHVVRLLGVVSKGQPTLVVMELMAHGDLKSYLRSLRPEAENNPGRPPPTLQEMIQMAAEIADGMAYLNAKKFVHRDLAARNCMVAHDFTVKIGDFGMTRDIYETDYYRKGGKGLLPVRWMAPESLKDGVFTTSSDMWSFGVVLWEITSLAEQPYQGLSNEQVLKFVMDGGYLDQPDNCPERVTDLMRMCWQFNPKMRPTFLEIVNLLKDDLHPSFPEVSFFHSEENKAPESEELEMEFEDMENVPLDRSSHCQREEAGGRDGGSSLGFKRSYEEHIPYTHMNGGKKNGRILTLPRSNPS
Chain of Insulin receptor (Mus musculus, UniProt P15208) (P15208 28-748 limits assumed): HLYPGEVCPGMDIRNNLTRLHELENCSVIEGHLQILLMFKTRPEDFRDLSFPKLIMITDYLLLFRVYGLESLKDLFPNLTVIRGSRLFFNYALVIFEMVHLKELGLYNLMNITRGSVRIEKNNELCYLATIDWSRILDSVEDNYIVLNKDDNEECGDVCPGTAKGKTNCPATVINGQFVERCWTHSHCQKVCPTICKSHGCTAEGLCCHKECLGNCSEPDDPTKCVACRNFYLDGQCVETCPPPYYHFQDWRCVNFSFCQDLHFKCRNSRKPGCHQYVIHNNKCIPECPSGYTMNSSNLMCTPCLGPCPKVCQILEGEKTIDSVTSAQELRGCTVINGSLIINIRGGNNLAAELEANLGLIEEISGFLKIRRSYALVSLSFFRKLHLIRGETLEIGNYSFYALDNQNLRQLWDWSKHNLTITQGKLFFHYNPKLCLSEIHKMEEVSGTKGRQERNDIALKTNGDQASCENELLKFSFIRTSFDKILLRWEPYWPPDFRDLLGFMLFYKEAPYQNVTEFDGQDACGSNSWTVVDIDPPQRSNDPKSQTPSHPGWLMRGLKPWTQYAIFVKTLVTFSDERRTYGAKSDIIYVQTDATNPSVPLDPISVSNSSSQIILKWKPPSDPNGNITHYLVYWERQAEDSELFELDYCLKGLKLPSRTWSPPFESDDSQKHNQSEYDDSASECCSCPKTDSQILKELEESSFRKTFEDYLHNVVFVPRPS
Chain of Insulin receptor (Mus musculus, UniProt P15208) (P15208 753-1372 limits assumed): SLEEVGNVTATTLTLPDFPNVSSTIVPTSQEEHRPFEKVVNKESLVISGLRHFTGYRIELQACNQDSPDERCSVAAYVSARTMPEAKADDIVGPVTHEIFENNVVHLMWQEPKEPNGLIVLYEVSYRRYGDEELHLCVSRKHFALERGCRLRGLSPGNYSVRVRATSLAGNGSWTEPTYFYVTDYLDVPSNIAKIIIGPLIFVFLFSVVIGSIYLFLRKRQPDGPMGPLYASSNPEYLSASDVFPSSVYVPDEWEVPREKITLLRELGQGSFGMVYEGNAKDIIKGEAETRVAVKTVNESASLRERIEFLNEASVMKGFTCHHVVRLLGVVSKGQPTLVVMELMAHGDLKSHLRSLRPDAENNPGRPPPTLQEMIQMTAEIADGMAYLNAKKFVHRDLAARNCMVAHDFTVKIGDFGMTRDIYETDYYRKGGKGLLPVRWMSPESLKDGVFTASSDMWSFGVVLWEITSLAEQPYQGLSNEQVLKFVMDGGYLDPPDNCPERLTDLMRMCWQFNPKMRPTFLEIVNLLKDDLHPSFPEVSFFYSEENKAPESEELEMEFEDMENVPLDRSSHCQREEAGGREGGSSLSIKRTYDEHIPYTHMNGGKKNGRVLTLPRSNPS

Activity (Insulin receptor [1]): 10%
pEC50 (Insulin receptor [2]): 8.40
pKd (Insulin receptor [3]): 10.70
SMILES: CC(C)C[C@H](NC(=O)[C@H](CCC(N)=O)NC(=O)[C@H](CCCNC(=N)N)NC(=O)[C@H](CCC(=O)O)NC(=O)[C@H](Cc1ccccc1)NC(=O)[C@H](Cc1c[nH]c2ccccc12)NC(=O)[C@H](CC(=O)O)NC(=O)[C@H](Cc1ccc(O)cc1)NC(=O)[C@H](Cc1ccccc1)NC(=O)[C@H](CO)NC(=O)[C@H](CCC(=O)O)NC(=O)[C@H](CC(=O)O)NC(=O)[C@H](CC(C)C)NC(=O)[C@H](CO)NC(=O)CNC(=O)[C@H](CO)NC(=O)[C@@H]1CCCN1C(=O)[C@H](CS)NC(=O)CNC(=O)[C@H](CCCNC(=N)N)NC(=O)CNC(=O)[C@H](Cc1ccc(O)cc1)NC(=O)[C@@H](NC(=O)[C@H](CCC(=O)O)NC(=O)[C@H](CS)NC(=O)[C@H](CCC(=O)O)NC(=O)[C@@H](NC(=O)[C@H](CCC(N)=O)NC(=O)[C@H](C)NC(=O)[C@H](Cc1c[nH]c2ccccc12)NC(=O)[C@H](CCC(=O)O)NC(=O)[C@H](CCC(=O)O)NC(=O)[C@H](CCC(=O)O)NC(=O)[C@H](CC(C)C)NC(=O)[C@@H](N)CO)C(C)C)C(C)C)C(=O)NCC(=O)O (H-SLEEEWAQVECEVYGRGCPSGSLDESFYDWFERQLG-OH)
